Columns and labels:
Acinetobacter sp. = test: in vitro antibacterial activity, agar dilution MIC; format: cell-based
Experimental: (§1) The in vitro antibacterial activity of LL-E33288 components was determined against a spectrum of gram-positive and gram-negative bacteria by a standard agar dilution method. Mueller-Hinton again containing two-fold decreasing concentrations of the antibiotics were poured into petri plates. the agar surfaces were inoculated with 1 to 5 x 10^4 colong forming units of bacteria by means of the steers replicating device.

Providencia stuartii = test: in vitro antibacterial activity, agar dilution MIC; format: cell-based; conditions: Providencia stuartii CMC 83-82
Experimental: as §1

Enterobacter aerogenes = test: in vitro antibacterial activity, agar dilution MIC; format: cell-based; conditions: Enterobacter aerogenes IO 83-44
Experimental: as §1

Klebsiella pneumoniae = test: in vitro antibacterial activity, agar dilution MIC; format: cell-based
Experimental: as §1

Citrobacter diversus = test: in vitro antibacterial activity, agar dilution MIC; format: cell-based; conditions: Citrobacter diversus K 82-84
Experimental: as §1

Enterobacter cloacae = test: in vitro antibacterial activity, agar dilution MIC; format: cell-based; conditions: Enterobacter cloacae CMC 84-4
Experimental: as §1

Serratia marcescens = test: in vitro antibacterial activity, agar dilution MIC; format: cell-based
Experimental: as §1

Escherichia coli = test: in vitro antibacterial activity, agar dilution MIC; format: cell-based
Experimental: as §1

Citrobacter freundii = test: in vitro antibacterial activity, agar dilution MIC; format: cell-based; conditions: Citrobacter freundii IO 83-13
Experimental: as §1

Morganella morganii = test: in vitro antibacterial activity, agar dilution MIC; format: cell-based; conditions: Morganella morganii IO 83-18
Experimental: as §1

[1] = system: M5076 reticular cell Sarcoma; test: M5076 Sarcoma test; format: in vivo, BDF1 mice; conditions: Table VIII, i.p. days 1, 5, 9, 13 and 17, control 28.5 days
Experimental: The M5076 reticular cell Sarcoma is propagated as subcutaneous implants in C57B2/6 female mice. In the assays for antitumor activity, BDF1 mice of either sex were inoculated intraperitoneally with 0.5 ml of a 10% tumor brei. LL-E33288 antibiotics were tested in the M5076 system as a complex (Bromo-complex) of all components. Test compounds were administered intraperitoneally on days 1, 5, 9, 13 and 17 relative to tumor inoculation on day zero. The median survival time in days was determined for each drug dose used on day 60 and the ratio of survival time for treated (T)/control (C) animals were calculated. The results of this test appear in Table VIII compared to the results obtained with Cisplatin. If T/C X 100 (%) is 125 or over, the tested compound is considered to have significant anti-tumor activity.

CCN[C@H]1CO[C@@H](O[C@H]2[C@H](O[C@H]3C#CC=CC#C[C@@]4(O)CC(=O)C(NC(=O)OC)=C3/C4=C\CSSSC)O[C@H](C)[C@@H](NO[C@H]3C[C@H](O)[C@H](SC(=O)c4c(C)c(I)c(O[C@@H]5O[C@@H](C)[C@H](O)[C@@H](OC)[C@H]5O)c(OC)c4OC)[C@@H](C)O3)[C@@H]2O)C[C@@H]1OC (stereo in doubt) [LL-E33288γ1-I]
Minimal Inhibitory Concentration (Acinetobacter sp.; Acinetobacter sp. CMC 83-89): 0.12 µg/mL
Minimal Inhibitory Concentration (Acinetobacter sp.; Acinetobacter sp. IO 83-49): 0.06 µg/mL
Minimal Inhibitory Concentration (Providencia stuartii): 0.25 µg/mL
Minimal Inhibitory Concentration (Enterobacter aerogenes): 0.50 µg/mL
Minimal Inhibitory Concentration (Klebsiella pneumoniae; Klebsiella pneumoniae AD (MP)): 0.25 µg/mL
Minimal Inhibitory Concentration (Klebsiella pneumoniae; Klebsiella pneumoniae CMC 84-5): 0.25 µg/mL
Minimal Inhibitory Concentration (Citrobacter diversus): 0.25 µg/mL
Minimal Inhibitory Concentration (Enterobacter cloacae): 0.50 µg/mL
Minimal Inhibitory Concentration (Serratia marcescens; Serratia marcescens CMC 83-27): 0.25 µg/mL
Minimal Inhibitory Concentration (Serratia marcescens; Serratia marcescens F35 (MP)): 0.12 µg/mL
Minimal Inhibitory Concentration (Escherichia coli; Escherichia coli ATCC 25922): 0.25 µg/mL
Minimal Inhibitory Concentration (Escherichia coli; Escherichia coli CMC 84-11, about 18 hours, 35°C): 0.25 µg/mL
Minimal Inhibitory Concentration (Escherichia coli; Escherichia coli No. 311-(MP)): 0.25 µg/mL
Minimal Inhibitory Concentration (Citrobacter freundii): 0.12 µg/mL
Minimal Inhibitory Concentration (Morganella morganii): 0.25 µg/mL

N.N.[Cl][Pt][Cl] [Cisplatin, reference compound]
Median Survival ([1]; dose 0.25 mg/kg): 45 days
T/C x 100 ([1]; dose 0.25 mg/kg): 158%
Median Survival ([1]; dose 0.5 mg/kg): 44.5 days
T/C x 100 ([1]; dose 0.5 mg/kg): 156%
Median Survival ([1]; dose 1 mg/kg): 30 days
T/C x 100 ([1]; dose 1 mg/kg): 105%

Reference: patent EP0182152B1, “Antitumor antibiotics (LL-E33288 Complex)” (AMERICAN CYANAMID COMPANY, priority 1984, dated 1986)
